This passage reports EC50, IC50 and Activity results from ChEMBL document CHEMBL4619770, “Comatulins A-E, Taurine-Conjugated Anthraquinones from the Australian Crinoid Comatula rotalaria” (J Nat Prod, 2020).

Assay [1] relates to Human immunodeficiency virus 1. As to the kind of experiment: Antiviral activity against HIV-1 assessed as reduction in viral replication. The class given is functional, organism-based.
Assay [2] has as its system Haemonchus contortus. As to the kind of experiment: Anti-helmintic activity against third-stage Haemonchus contortus larvae assessed as reduction in larval motility after 72 hrs. In kind it is functional, organism-based.
Assay [3] concerns Haemonchus contortus. Nature of the assay: Anti-helmintic activity against third-stage Haemonchus contortus larvae assessed as induction of eviscerated phenotype at 100 uM measured on day 7 by light microscopic analysis relative to control. In kind it is functional.
Assay [4] relates to Haemonchus contortus. As to the kind of experiment: Anti-helmintic activity against fourth stage L4 Haemonchus contortus larvae assessed as induction of eviscerated phenotype measured on day 7 by light microscopic method. In kind it is functional, organism-based.
Assay [5] concerns Haemonchus contortus. As to the kind of experiment: Anti-helmintic activity against third-stage Haemonchus contortus larvae assessed as reduction in development of xL3 stage larvae to L4 stage at 100 uM after 7 days. The class given is functional, organism-based.
Assay [6] concerns Haemonchus contortus. As to the kind of experiment: Anti-helmintic activity against third-stage Haemonchus contortus larvae assessed as reduction in development of xL3 stage larvae to L4 stage after 7 days. In kind it is functional, organism-based. As to conditions: 168 h.
The subject of assay [7] is Haemonchus contortus. Nature of the assay: Anti-helmintic activity against third-stage Haemonchus contortus larvae assessed as reduction in development of xL3 stage larvae to L4 stage at low concentration after 7 days. In kind it is functional, organism-based.
The subject of assay [8] is Haemonchus contortus. As to the kind of experiment: Anti-helmintic activity against fourth stage L4 Haemonchus contortus larvae assessed as induction of changes in internal structure measured on day 7 by light microscopic method. The class given is functional, organism-based.
The test system of assay [9] is Human immunodeficiency virus 1. As to the kind of experiment: Antiviral activity against HIV-1 assessed as reduction in viral replication at 0.1 uM. In kind it is functional. More on the design: scale not given: the % may be the effect or the level left.
Assay [10] concerns Human immunodeficiency virus 1. Nature of the assay: Antiviral activity against HIV-1 NL4.3 infected in CEM-GXR T cells assessed as reduction in viral replication after 72 hrs by flow cytometry. In kind it is functional, organism-based. The following applies: Human immunodeficiency virus 1, NL4.3, CEM-GXR.

Calls of active or inactive are those of the source. The rule behind the calls is not given here. A value given as a limit tells only on which side of the number the result lay.

As to `CCCC(=O)c1c(O)c(CNCCS(=O)(=O)O)c(O)c2c1C(=O)c1cc(OC)cc(O)c1C2=O`, in assay [1], the EC50 is greater than 100 µM. For `O=C1c2cc(O)cc(O)c2C(=O)c2c(O)cc(O)cc21`, in assay [1], the 50% effective concentration (EC50) is greater than 100 µM. As to `CCCc1cc(=O)c2c(OC)c(OC)c3cc(OC)cc(OC)c3c2o1`, the IC50 was found to be 30 µM in [2] and 31 µM in assay [6]. Also, the Activity in [3] is recorded as 51%. Further, the outcome in [4] and in [7] was inactive. The result in assay [5] and in [8] was Active. Besides, the EC50 in [1] is greater than 100 µM.

Regarding `CCCC(=O)c1c(O)cc(O)c2c1C(=O)c1cc(OC)cc(OC)c1C2=O`, the EC50 in [1] was greater than 100 µM. Same read-out and setting: the result for `CC(=O)c1c(O)cc(O)c2c1C(=O)c1cc(O)cc(O)c1C2=O` reads greater than 100 µM.

Take `CC(C)(C)NC(=O)[C@@H]1CN(Cc2cccnc2)CCN1C[C@@H](O)C[C@@H](Cc1ccccc1)C(=O)N[C@H]1c2ccccc2C[C@H]1O.O` [INDINAVIR]: the Activity in assay [9] is given as 72%. In the case of `CCCc1cc(=O)c2c(O)c(OC)c3cc(O)cc(OC)c3c2o1`, the concentration for a half-maximal effect (EC50) in [1] is greater than 100 µM.

As to `CCCC(=O)c1c(O)cc(O)c2c1C(=O)c1cc(OC)c(OC)c(O)c1C2=O`, the EC50 in [1] is greater than 100 µM. Take `CCCc1cc(=O)c2c(O)cc3cc(O)cc(OC)c3c2o1` [COMAPARVIN]: the results for the EC50 in [10] and in assay [1] were 7.5 µM and 5.7 µM, respectively.

As to `COc1cc(O)c2c(c1)C(=O)c1c(C(C)=O)c(O)c(CNCCS(=O)(=O)O)c(O)c1C2=O`, the concentration giving a half-maximal response (EC50) in [1] was greater than 100 µM. On the same count and under the same terms, the result for `COc1cc(O)c2c(c1)C(=O)c1c(C(C)=O)c(O)cc(O)c1C2=O` reads greater than 100 µM; that for `CCCC(=O)c1c(O)cc(O)c2c1C(=O)c1cc(OC)cc(O)c1C2=O`, greater than 100 µM.

Regarding `CCCC(=O)c1c(O)cc(O)c2c1C(=O)c1cc(O)cc(O)c1C2=O`, in [5], the outcome was Active. In [1], the EC50 is greater than 100 µM. Consider `COc1cc(OC)c2c(c1)C(=O)c1c(C(C)=O)c(O)cc(O)c1C2=O`, for which the concentration for a half-maximal effect (EC50) in assay [1] was greater than 100 µM.
